Results as given in patent US5633345A, “Cyclic peptides” (priority 1992, dated 1997).
Starred links: 1 amine or outer side, 2 acyl side, 3 side chain; linkers in the order of their positions; H or OH if unused. Non-standard residues stand in square brackets, D forms with d. Residues, ends and D or L forms follow the SMILES beside them. *: point of attachment. X7 = CC(=O)OC(c1ccccc1)[C@@H](C(=O)[*:2])N(C)[*:1]; NMePhe(2-F) = CN[C@@H](Cc1ccccc1F)C(=O)O; X1 = CC[C@@H](C)[C@@H](O[*:1])C(=O)[*:2]; NMeVal(β-OH) = CN[C@H](C(=O)O)C(C)(C)O; X6 = CC(CO)[C@@H](C(=O)[*:2])N(C)[*:1]; NMeaIle = CC[C@@H](C)[C@H](NC)C(=O)O; Phe(2-F) = N[C@@H](Cc1ccccc1F)C(=O)O; X5 = CN([C@@H](CCCO)C(=O)[*:2])[*:1]; NMeF = CN[C@@H](Cc1ccccc1)C(=O)O; aIle = CC[C@@H](C)[C@H](N)C(=O)O; NMeL = CN[C@@H](CC(C)C)C(=O)O; NMeV = CN[C@H](C(=O)O)C(C)C; Thz = O=C(O)[C@@H]1CSCN1; OBn = c1ccc(CO*)cc1; Sar = CNCC(=O)O

Legend:
C. albicans TIMM 0171 = test: Antifungal activity, MIC by agar dilution method; type: cell-based, Candida albicans; conditions: for MIC: C. albicans TIMM 0171, Sabouraud-dextrose agar medium, 30° C. for 2 days
Description: (§1) The minimum inhibitory concentration (MIC) values were determined after incubation at 30° C. for 2 days.

C. grabrata TIMM 1062 = test: Antifungal activity, MIC by agar dilution method; type: cell-based; conditions: Sabouraud-dextrose agar medium, 30° C. for 2 days
Description: as §1

C. kefyr TIMM 0301 = test: Antifungal activity, MIC by agar dilution method; type: cell-based; conditions: Sabouraud-dextrose agar medium, 30° C. for 2 days
Description: as §1

[1] = tested on: Candida albicans TIMM 0136; test: Antifungal activity, MIC by agar dilution method; type: cell-based; conditions: Sabouraud-dextrose agar medium, 30° C. for 2 days
Description: as §1

[2] = tested on: Cryptococcus neoformans TIMM 0354; test: Antifungal activity, MIC by agar dilution method; type: cell-based; conditions: Sabouraud-dextrose agar medium, 30° C. for 2 days
Description: as §1

[3] = mouse, in vivo, ip, 100 mg/kg

“cyclo(L-aIle-L-ROMeNva-L-Leu-L-βHOMeVal-D-Hmp-L-MeVal-L-Phe-L-MePhe-L-Pro) (R: Bzl) [Compound 27]” showed an MIC (C. albicans TIMM 0171) of 0.78 µg/mL, an MIC (C. grabrata TIMM 1062) of over 25 µg/mL and an MIC (C. kefyr TIMM 0301) of 3.12 µg/mL. It also gave an MIC [1] of 0.78 µg/mL and an MIC [2] of over 25 µg/mL.

With “cyclo(L-GluOR-L-MeVal-L-Leu-L-βHOMeVal-D-Hmp-L-MeVal-L-Phe-L-MePhe-L- Pro) (R: n-hexyl) [Compound 31]” the MIC (C. albicans TIMM 0171) was 0.20 µg/mL, the MIC (C. grabrata TIMM 1062) was 1.56 µg/mL and the MIC (C. kefyr TIMM 0301) was 3.12 µg/mL. The MIC [1] was 0.39 µg/mL and the MIC [2] was over 25 µg/mL.

With “cyclo(L-GluOR-L-MeVal-L-Leu-L-βHOMeVal-D-Hmp-L-MeVal-L-Phe-L-MePhe-L- Pro) (R: n-octyl) [Compound 32]” the MIC (C. albicans TIMM 0171) was 0.78 µg/mL, the MIC (C. grabrata TIMM 1062) was 1.56 µg/mL and the MIC (C. kefyr TIMM 0301) was 6.25 µg/mL. The MIC [1] was 0.78 µg/mL and the MIC [2] was over 25 µg/mL.

For `CC(C)C[C@@H]1NC(=O)[C@H](C(C)C)N(C)C(=O)[C@H](C(C)C)NC(=O)[C@@H]2CCCN2C(=O)[C@H](Cc2ccccc2)N(C)C(=O)[C@H](Cc2ccccc2)NC(=O)[C@H](C(C)C)N(C)C(=O)[C@@H](C(C)C)OC(=O)[C@H](C(C)(C)O)N(C)C1=O` [Compound 25] (HELM PEPTIDE1{F.[meF].P.V.[meV].L.[CN([C@H](C(=O)[*:2])C(C)(C)O)[*:1]].[CC(C)[C@@H](O[*:1])C(=O)[*:2]].[meV]}$PEPTIDE1,PEPTIDE1,1:R1-9:R2$$$V2.0), the toxicity signs [3] was “no toxicity signs”.

“cyclo(L-RONva-L-MeVal-L-Leu-L-βHOMeVal-D-Hmp-L-MeVal-L-Phe-L-MePhe-L- Pro) (R: n-hexanoyl) [Compound 37]” gave an MIC (C. albicans TIMM 0171) of 0.10 µg/mL, an MIC (C. grabrata TIMM 1062) of 0.39 µg/mL and an MIC (C. kefyr TIMM 0301) of 0.78 µg/mL. The MIC [1] was 0.10 µg/mL and the MIC [2] was 12.5 µg/mL.

For “cyclo(L-GluOR-L-MeVal-L-Leu-L-βHOMeVal-D-Hmp-L-MeVal-L-Phe-L-MePhe-L- Pro) (R: trans-3-hexenyl) [Compound 35]”, the MIC (C. albicans TIMM 0171) was 0.78 µg/mL, the MIC (C. grabrata TIMM 1062) was 0.39 µg/mL and the MIC (C. kefyr TIMM 0301) was 1.56 µg/mL. For the same compound, the MIC [1] was 0.20 µg/mL and the MIC [2] was over 25 µg/mL.

In the case of `CC[C@@H](C)[C@@H]1NC(=O)[C@@H]2CSCN2C(=O)[C@H](Cc2ccccc2)N(C)C(=O)[C@H](Cc2ccccc2)NC(=O)[C@H](C(C)C)N(C)C(=O)[C@@H]([C@H](C)CC)OC(=O)[C@H](C(C)(C)O)N(C)C(=O)[C@H](CC(C)C)NC(=O)[C@H](C(C)C)N(C)C1=O` [Compound 10] (cyclo(F[NMeF][Thz][aIle][NMeV]L[NMeVal(β-OH)][X1][NMeV])), the toxicity signs [3] was “no toxicity signs”.

With `CC[C@@H](C)[C@@H]1NC(=O)[C@@H]2CCCN2C(=O)CN(C)C(=O)[C@H](Cc2ccccc2)NC(=O)[C@H](C(C)C)N(C)C(=O)[C@@H]([C@H](C)CC)OC(=O)[C@H](C(C)(C)O)N(C)C(=O)[C@H](CC(C)C)NC(=O)[C@H](C(C)C)N(C)C1=O` [Compound 13] (cyclo(F[Sar]P[aIle][NMeV]L[NMeVal(β-OH)][X1][NMeV])) the toxicity signs [3] was “no toxicity signs”.

With “cyclo(L-aIle-L-MeVal-L-GluOR-L-βHOMeVal-D-Hmp-L-MeVal-L-Phe-L-MePhe-L-Pro) (R: cHex) [Compound 38]” the MIC (C. albicans TIMM 0171) was 0.013 µg/mL, the “activity against Candida albicans TIMM 0171 compared with compound 1” value (C. albicans TIMM 0171; comparison in words) was “higher activity against Candida albicans TIMM 0171 than compound 1” and the MIC (C. grabrata TIMM 1062) was 1.56 µg/mL. It also gave an MIC (C. kefyr TIMM 0301) of 3.12 µg/mL, an MIC [1] of 0.20 µg/mL and an MIC [2] of over 25 µg/mL.

For `CC[C@@H](C)[C@@H]1NC(=O)[C@@H]2CCCN2C(=O)[C@H](Cc2ccccc2)N(C)C(=O)[C@H](Cc2ccccc2)NC(=O)[C@H](C(C)C)N(C)C(=O)[C@@H]([C@H](C)CC)OC(=O)[C@H](C(C)(C)O)N(C)C(=O)[C@H](CC(C)C)NC(=O)[C@H](CC(C)C)N(C)C1=O` [Compound 23, cyclo(L-aIle-L-MeLeu-L-Leu-L-βHOMeVal-D-Hmp-L-MeVal-L-Phe-L-MePhe-L-Pro)] (cyclo(F[NMeF]P[aIle][NMeL]L[NMeVal(β-OH)][X1][NMeV])), the toxicity signs [3] was “no toxicity signs”.

For `CC[C@@H](C)[C@@H]1NC(=O)[C@@H]2CCCN2C(=O)[C@H](Cc2ccccc2)N(C)C(=O)[C@H](Cc2ccccc2)NC(=O)[C@H](C(C)C)N(C)C(=O)[C@@H]([C@H](C)CC)OC(=O)[C@H](C(C)CO)N(C)C(=O)[C@H](CC(C)C)NC(=O)[C@H](C(C)C)N(C)C1=O` (some centres unmarked) [Compound 4] (cyclo(F[NMeF]P[aIle][NMeV]L[X6][X1][NMeV])), the toxicity signs [3] was “no toxicity signs”.

With `CC[C@@H](C)[C@H]1OC(=O)[C@H](C(C)(C)O)N(C)C(=O)[C@H](CC(C)C)NC(=O)[C@H](C(C)C)N(C)C(=O)[C@H](CCC(=O)OCc2ccccc2)NC(=O)[C@@H]2CCCN2C(=O)[C@H](Cc2ccccc2)N(C)C(=O)[C@H](Cc2ccccc2)NC(=O)[C@H](C(C)C)N(C)C1=O` [Compound 26, cyclo(L-GluOR-L-MeVal-L-Leu-L-βHOMeVal-D-Hmp-L-MeVal-L-Phe-L-MePhe-L- Pro) (R: Bzl)] (cyclo(E(OBn)[NMeV]L[NMeVal(β-OH)][X1][NMeV]F[NMeF]P)) the toxicity signs [3] was “no toxicity signs”.

In the case of `CC[C@@H](C)[C@@H]1NC(=O)[C@@H]2CCCN2C(=O)[C@H](Cc2ccccc2F)N(C)C(=O)[C@H](Cc2ccccc2F)NC(=O)[C@H](C(C)C)N(C)C(=O)[C@@H]([C@H](C)CC)OC(=O)[C@H](C(C)(C)O)N(C)C(=O)[C@H](CC(C)C)NC(=O)[C@H](C(C)C)N(C)C1=O` [Compound 7] (cyclo(L[NMeVal(β-OH)][X1][NMeV][Phe(2-F)][NMePhe(2-F)]P[aIle][NMeV])), the toxicity signs [3] was “no toxicity signs”.

In the case of `CCCC[C@@H]1NC(=O)[C@@H]2CCCN2C(=O)[C@H](Cc2ccccc2)N(C)C(=O)[C@H](Cc2ccccc2)NC(=O)[C@H](C(C)C)N(C)C(=O)[C@@H]([C@H](C)CC)OC(=O)[C@H](C(C)(C)O)N(C)C(=O)[C@H](CC(C)C)NC(=O)[C@H](C(C)C)N(C)C1=O` [Compound 11] (HELM PEPTIDE1{F.[meF].P.[Nle].[meV].L.[CN([C@H](C(=O)[*:2])C(C)(C)O)[*:1]].[CC[C@@H](C)[C@@H](O[*:1])C(=O)[*:2]].[meV]}$PEPTIDE1,PEPTIDE1,1:R1-9:R2$$$V2.0), the toxicity signs [3] was “no toxicity signs”.

Work on “cyclo(L-GluOR-L-MeVal-L-Leu-L-βHOMeVal-D-Hmp-L-MeVal-L-Phe-L-MePhe-L- Pro) (R: n-decyl) [Compound 33]” yielded an MIC (C. albicans TIMM 0171) of 1.56 µg/mL, an MIC (C. grabrata TIMM 1062) of over 25 µg/mL and an MIC (C. kefyr TIMM 0301) of over 25 µg/mL. The MIC [1] was 1.56 µg/mL and the MIC [2] was over 25 µg/mL.

For `CC[C@@H](C)[C@@H]1NC(=O)[C@@H]2CCCN2C(=O)[C@H](Cc2ccccc2)N(C)C(=O)[C@H](Cc2ccccc2)NC(=O)[C@H](C(C)C)N(C)C(=O)[C@@H]([C@H](C)CC)OC(=O)[C@H](C(C)(C)O)N(C)C(=O)[C@H](CC(C)C)NC(=O)[C@H](CCCO)N(C)C1=O` [Compound 28, cyclo(L-aIle-L-HOMeNva-L-Leu-L-βHOMeVal-D-Hmp-L-MeVal-L-Phe-L-MePhe-L-Pro)] (cyclo(F[NMeF]P[aIle][X5]L[NMeVal(β-OH)][X1][NMeV])), the toxicity signs [3] was “no toxicity signs”.

In the case of `CC[C@@H](C)[C@@H]1NC(=O)[C@@H]2CCCN2C(=O)[C@H](C(OC(C)=O)c2ccccc2)N(C)C(=O)[C@H](Cc2ccccc2)NC(=O)[C@H](C(C)C)N(C)C(=O)[C@@H]([C@H](C)CC)OC(=O)[C@H](C(C)(C)O)N(C)C(=O)[C@H](CC(C)C)NC(=O)[C@H](C(C)C)N(C)C1=O` (stereo partly drawn) [Compound 15] (cyclo(F[X7]P[aIle][NMeV]L[NMeVal(β-OH)][X1][NMeV])), the toxicity signs [3] was “no toxicity signs”.

“cyclo(L-GluOR-L-MeVal-L-Leu-L-βHOMeVal-D-Hmp-L-MeVal-L-Phe-L-MePhe-L- Pro) (R: cis-3-hexenyl) [Compound 34]” showed an MIC (C. albicans TIMM 0171) of 0.10 µg/mL, an MIC (C. grabrata TIMM 1062) of 0.39 µg/mL and an MIC (C. kefyr TIMM 0301) of 0.78 µg/mL. The MIC [1] was 0.20 µg/mL and the MIC [2] was over 25 µg/mL.

In the case of `CC[C@@H](C)[C@@H]1NC(=O)[C@@H]2CCCN2C(=O)[C@H](Cc2ccccc2)N(C)C(=O)[C@H](Cc2ccccc2)NC(=O)[C@H](C(C)C)N(C)C(=O)[C@@H]([C@H](C)CC)OC(=O)[C@H](C(C)(C)O)N(C)C(=O)[C@H](CC(C)C)NC(=O)[C@H]([C@H](C)CC)N(C)C1=O` [Compound 22, cyclo (L-aIle-L-MeaIle-L-Leu-L-βHOMeVal-D-Hmp-L-MeVal-L-Phe-L-MePhe-L-Pro)] (cyclo(F[NMeF]P[aIle][NMeaIle]L[NMeVal(β-OH)][X1][NMeV])), the toxicity signs [3] was “no toxicity signs”.

In the case of `CC[C@@H](C)[C@@H]1NC(=O)[C@@H]2CCCN2C(=O)[C@H](Cc2ccccc2)N(C)C(=O)[C@H](Cc2ccccc2)NC(=O)[C@H](C(C)C)N(C)C(=O)[C@@H]([C@H](C)CC)OC(=O)[C@H]([C@@H](C)O)N(C)C(=O)[C@H](CC(C)C)NC(=O)[C@H](C(C)C)N(C)C1=O` [Compound 19, Cyclo(L-aIle-L-MeVal-L-Leu-L-MeThr-D-Hmp-L-MeVal-L-Phe-L-MePhe-L-Pro)] (HELM PEPTIDE1{F.[meF].P.[CC[C@@H](C)[C@H](N[*:1])C(=O)[*:2]].[meV].L.[meT].[CC[C@@H](C)[C@@H](O[*:1])C(=O)[*:2]].[meV]}$PEPTIDE1,PEPTIDE1,1:R1-9:R2$$$V2.0), the toxicity signs [3] was “no toxicity signs”.
